The text below walks through data of patent US10414721B1, “Inhibitor of endocannabinoid cellular reuptake” (University of Bern, priority 2018, dated 2019).

The term ED50 denotes the midpoint of the dose-response relation. The term bioavailability denotes dose-corrected exposure relative to a reference, in per cent. Usually Ki stands for the dissociation constant of the complex between target and ligand, obtained from inhibition or displacement. For orientation: IC50 means the midpoint of a concentration-inhibition curve.

Entries after “also recorded” stand apart in the source; their conditions may differ.

In one data set the test system is BALB/c male mice. The experiment in a line: Hot plate test after oral administration. Format: in vivo, mouse. The protocol: Acute pain was evaluated 1 h after gavage administration of WOBE437, at 10, 25, 50 and 100 mg/kg in BALB/c mice. The test was performed using a clean 54-56° C. hot plate (Thermo Scientific, USA) with a Plexiglas cylinder. The latency to show the first nociceptive response (paw lick or foot shake) was measured. In order to evaluate CB1 receptor antagonism, 5 mg/kg of rimonabant (Pharmasery AG, Switzerland) was injected intraperitoneally (i.p.) (20 μL, in DMSO) 30 min before WOBE437 administration.
On the technique in general: Thermal pain tests record how soon the animal reacts.

Data set [1] in a line: Microsomal clearance, mouse liver microsomes. Format: in vitro ADME. The protocol:
Human or mice microsome clearance experiment were carried out as according to a previously describe protocol. Briefly, microsome preparation (0.5 mg/mL) plus cofactor NADPH solution was incubated with 1 μM of WOBE437 in 96-well plates at 37° C. After 1, 3, 6, 9, 15, 25, 35 and 45 min, 40 μL of the preparation was transferred and quenched with 3:1 (v/v) acetonitrile containing internal standards. Samples were then cooled and centrifuged before analysis by LC-MS/MS. Log peak area ratios (test compound peak area/internal standard peak area) are plotted against incubation time using a linear fit. The calculated slope is used to determine the intrinsic clearance. Data are obtained from single experiments measured with multiple time-points.
(Liver microsomes are vesicles of endoplasmic reticulum, rich in cytochrome P450 enzymes.)

For data set [2], the system named is BALB/c mice. Put plainly: Acetic acid-induced writhing test. The class given is in vivo, mouse. Conditions: 5 and 10 mg/kg. The protocol: WOBE437 was initially assessed in a battery of four individual tests typically associated with CB1 receptor activation in mice (nociception, locomotion, body temperature and cataleptic behavior), collectively referred to as the “tetrad”. Dose-response experiments identified 10 mg/kg as the lowest dose to elicit a moderate but complete tetrad in BALB/c mice upon intraperitoneal (i.p.) administration (FIGS. 3A-D). […] To assess whether the WOBE437-induced effects were CB1 receptor-mediated, mice were pre-treated with the selective antagonist/inverse agonist rimonabant (SR1). […] These experiments provided a proof-of-concept for the mechanism of action of WOBE437 as a novel “indirect CB1 receptor agonist”. In subsequent studies, the effects of WOBE437 in pain, inflammatory and anxiety models were investigated. […] Both effects were reversed by SR1.
WOBE437 and RX-055 were tested in independent laboratories, in different mouse strains and in multiple (behavioral) models for cannabimimetic, analgesic, anti-inflammatory and anxiolytic-effects in wild-type and phenotypical CB1-KO mice as described in Chicca 2017.
On the technique in general: An intraperitoneal irritant provokes the stretching counted in writhing tests.

Data set [3] deals with cell lines and human whole blood. The experiment in a line: NAE levels in cell lines and human whole blood. The class given is cell-based. From the text:
WOBE437, AEA, 2-AG, other lipids and hormones were quantified by LC-MS/MS in different biological matrices (cells, human whole blood, rodent tissues) as reported in Chicca 2017.

The next data set deals with CB2 receptor (Homo sapiens, UniProt P34972). Put plainly: CB2 receptor binding assay. The protocol:
CB1 and CB2 receptor binding assays [^35S]GTPγS assays were performed as previously described. WOBE437 was profiled in more detail in an extended CNS adverse drug reaction screening panel (CEREP).

For data set [4], the system named is BALB/c mice. The experiment in a line: Open field test in monoarthritic mice. The class given is in vivo, mouse. The protocol: Potential motor changes were evaluated in an open field box (40×40×30 cm, Plexiglas). The mice were individually placed in the center and allowed to move freely for 5 min. The locomotion activity was recorded with the OpenFieldTest© and traveled distance was evaluated automatically. After every experiment, the box was cleaned with 70% ethanol to remove odors.

In another data set the target is FAAH (Homo sapiens, UniProt O00519). Put plainly: FAAH activity / AEA hydrolysis assay. Format: biochemical. Conditions: human recombinant enzyme, cell and brain homogenates; read-out: IC50 for AEA hydrolysis (FAAH) inhibition. The protocol: (§1) FAAH, ABHDs, MAGL and COX-2 activity assays were performed using cell homogenates, human recombinant enzymes and mouse, rat and pig brain homogenates as previously described.
Sequence of FAAH (O00519 whole entry): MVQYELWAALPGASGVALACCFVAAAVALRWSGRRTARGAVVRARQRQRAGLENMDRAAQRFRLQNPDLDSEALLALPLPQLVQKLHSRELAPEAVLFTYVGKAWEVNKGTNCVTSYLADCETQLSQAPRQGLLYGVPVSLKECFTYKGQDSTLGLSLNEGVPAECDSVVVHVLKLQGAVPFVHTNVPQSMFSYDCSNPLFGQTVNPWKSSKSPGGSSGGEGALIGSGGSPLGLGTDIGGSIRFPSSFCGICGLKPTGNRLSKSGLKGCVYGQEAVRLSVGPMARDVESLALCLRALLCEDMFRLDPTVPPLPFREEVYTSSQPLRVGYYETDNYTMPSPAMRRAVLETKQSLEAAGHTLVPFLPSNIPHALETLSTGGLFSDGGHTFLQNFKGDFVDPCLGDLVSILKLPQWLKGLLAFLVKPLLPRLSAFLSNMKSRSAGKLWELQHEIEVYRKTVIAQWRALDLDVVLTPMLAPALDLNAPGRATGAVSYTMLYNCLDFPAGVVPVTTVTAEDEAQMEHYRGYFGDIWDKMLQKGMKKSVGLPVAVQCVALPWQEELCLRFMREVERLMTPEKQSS

Data set [5] concerns main EC degrading enzymes (FAAH, MAGL). The experiment in a line: Stability towards endocannabinoid degrading enzymes. Format: in vitro ADME. The protocol: as §1
Data set [6] deals with 2-AG uptake in Neuro2a cells. The experiment in a line: 2-AG uptake and hydrolysis in Neuro2a cells. Format: cell-based, mouse. The protocol:
All radioactivity-based AEA and 2-AG uptake and release assays performed in U937, and HMC-1 cells were carried out using two different assay formats as previously reported. AEA and 2-AG uptake assay in Neuro2a and primary mouse cortical neurons were performed with a different method disclosed in Chicca 2017.

Data set [7] is described as follows: 14C-WOBE437 saturation binding to mouse brain membranes. The following applies: binding kinetics, high affinity site; read-out: affinity for membrane binding site. The protocol:
In addition to their effects on AEA uptake, the inhibition of FAAH was thoroughly investigated for all nanomolar inhibitors. […] The lack of significant FAAH inhibition by WOBE437 was established in different assay systems using human recombinant enzyme, cell and brain homogenates. […] Importantly, WOBE437 (1 μM) inhibited AEA uptake also in primary mouse cortical neurons by 50% after 2-7 min of incubation with a smaller inhibition (20-35%) upon longer incubation (10-20 min, FIG. 1F). […] In Neuro2a cells, incubation with WOBE437 (5 μM) for 2 and 5 min reduced overall uptake by 40%. (FIG. 1G). […] Then cells were treated with radiolabeled ^14C-WOBE437 to investigate the cellular penetration of the compound. In U937 cells, the vast majority of the radioactive signal was collected in the extracellular and membrane-bound fractions (75-90%), with negligible amounts (5-9%) detected in the intracellular fraction (FIGS. 2A-D). […] In order to further investigate this point, ^14C-WOBE437 was applied to membrane preparations generated in-house from mouse brain and U937 cells. […] The Kd values are in line with the IC50 values shown in the functional AEA uptake assays in Neuro2a and U937 cells (FIGS. 1C and 1D). In further experiments, 10 nM of ^14C-WOBE437 was co-incubated with different concentrations of AEA and U937 membranes. […] Furthermore, the endocannabinoids AEA and noladin ether and the AEA uptake inhibitor OMDM-2 could compete with ^14C-WOBE437 binding in brain and U937 membranes. […] Secondary plots of the slope (Kmapp/Vmaxapp vs. [WOBE437]) and intercept (1/Vmaxapp vs. [WOBE437]) confirmed the competitive inhibition of AEA uptake.

The next data set deals with T1, ABHD12 (Mus musculus, UniProt Q99LR1).
T1 construct: membrane preparations obtained from mouse brains; from tissue; host or cells: mouse brain membranes
T1 sequence (Q99LR1 whole entry): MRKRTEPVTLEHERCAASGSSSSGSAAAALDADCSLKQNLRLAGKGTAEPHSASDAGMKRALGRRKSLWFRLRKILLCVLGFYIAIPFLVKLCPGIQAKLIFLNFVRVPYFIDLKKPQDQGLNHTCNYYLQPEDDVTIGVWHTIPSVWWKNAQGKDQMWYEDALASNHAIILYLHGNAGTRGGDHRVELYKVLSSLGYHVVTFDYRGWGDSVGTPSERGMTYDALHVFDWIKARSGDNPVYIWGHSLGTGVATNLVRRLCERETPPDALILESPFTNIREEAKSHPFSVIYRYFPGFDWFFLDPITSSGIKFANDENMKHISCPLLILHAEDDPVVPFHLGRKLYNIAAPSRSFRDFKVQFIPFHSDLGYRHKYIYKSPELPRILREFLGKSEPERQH
Put plainly: ABHD12 activity (ABPP and radioactivity-based hydrolytic assays). Conditions: ABPP in mouse brain homogenate and hydrolytic assays. Format: biochemical. The protocol: ABPP experiments were performed using membrane preparations obtained from mouse brains as described earlier.
as §1

Sequence of CB2 receptor (P34972 whole entry): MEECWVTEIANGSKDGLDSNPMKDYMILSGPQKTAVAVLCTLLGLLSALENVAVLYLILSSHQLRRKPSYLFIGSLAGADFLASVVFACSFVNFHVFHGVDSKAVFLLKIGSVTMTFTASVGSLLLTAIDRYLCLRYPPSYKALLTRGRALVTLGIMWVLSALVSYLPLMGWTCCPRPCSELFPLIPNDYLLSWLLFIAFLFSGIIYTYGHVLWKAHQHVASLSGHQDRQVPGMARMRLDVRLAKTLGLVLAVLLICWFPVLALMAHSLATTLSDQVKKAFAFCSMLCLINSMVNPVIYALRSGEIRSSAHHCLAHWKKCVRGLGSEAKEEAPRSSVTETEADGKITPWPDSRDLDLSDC

With `CCCCCCC/C=C/C=C/C(=O)NCCc1ccc(OC)c(OC)c1` [WOBE437, (2E,4E)-N-[2-(3,4-Dimethoxyphenyl)ethyl]dodeca-2,4-dienamide], in the data set with BALB/c male mice (50 mg/kg p.o.), the “increase of pain threshold vs vehicle” value was 61.7%. Further, the “pain threshold (latency)” value with BALB/c male mice (50 mg/kg p.o., vehicle 5.8±0.9 s) came to 9.4 ± 1.9 s; with BALB/c male mice (100 mg/kg p.o.) it was 11.7 ± 2.6 s. Also, the ED50 in the data set with BALB/c male mice (Mus musculus, po, hot plate, read-out: estimated effective dose (ED50)) was 42.5 ± 3.9 mg/kg. For the same molecule, the “minimum dose to significantly increase pain threshold” value with BALB/c male mice (p.o., hot plate) is 50 mg/kg. For the same molecule, the “antinociceptive effect after rimonabant pre-treatment” value in the data set with BALB/c male mice (rimonabant 5 mg/kg i.p.) is given as “completely abolished”. In data set [1] (1 μM, preliminary), the clearance was determined as 0.174 mL/min/kg. For the same molecule, the bioavailability at 1 μM in data set [1] (mouse, mice, from microsomal clearance, read-out: estimated maximal bioavailability) was 17%. Further, the “abdominal stretches in the acetic writhing test” value in the data set with BALB/c mice [2] is given as “reduced number of abdominal stretches”. Moreover, in data set [3], the “levels of other NAEs” value is “without altering the levels of other NAEs”. For the same molecule, the affinity at CB2 receptor, expressed as Ki, was 48 µM. In addition, the spontaneous motor activity entry in the data set with BALB/c mice [4] was “without significant observable changes”. Moreover, on FAAH, the IC50 was not below 10 µM. The “stability in the presence of the main EC degrading enzymes” value in [5] was “completely stable; also recorded: not affected by the hydrolytic activity of FAAH and MAGL”. The “reduction of overall 2-AG uptake” value in data set [6] (5 μM, 2 and 5 min incubation) is 40%. In data set [6] (Neuro2a cells, time course), the “effect on 2-AG uptake and hydrolysis” value is “only inhibited 2-AG uptake but not hydrolysis”. Also, the Kd in data set [7] fell in the range of 0.01 to 0.02 µM. Besides, the “inhibition of ABHD12” value at ABHD12 was “did not inhibit”.
